Experiments:
[1] = target: T1, Human Factor XIIa (hFXIIa) (Homo sapiens, UniProt P00748); assay: Determination of Human Factor XIIa (hFXIIa) inhibition, fluorogenic substrate IC50 assay; format: biochemical; conditions: fluorogenic substrate H-DPro-Phe-Arg-AFC at Km, 25° C., read-out: Human FXIIa IC50
T1 construct: purchased Enzyme Research Laboratories
T1 sequence (P00748 373-615 limits assumed): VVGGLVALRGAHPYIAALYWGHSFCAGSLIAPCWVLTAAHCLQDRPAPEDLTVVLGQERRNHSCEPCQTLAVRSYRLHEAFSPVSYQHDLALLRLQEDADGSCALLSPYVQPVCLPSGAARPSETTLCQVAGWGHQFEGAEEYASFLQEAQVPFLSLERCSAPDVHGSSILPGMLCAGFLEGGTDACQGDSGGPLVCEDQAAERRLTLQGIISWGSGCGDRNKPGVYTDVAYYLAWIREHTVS
T1 sequence (P00748 20-372 partner limits assumed): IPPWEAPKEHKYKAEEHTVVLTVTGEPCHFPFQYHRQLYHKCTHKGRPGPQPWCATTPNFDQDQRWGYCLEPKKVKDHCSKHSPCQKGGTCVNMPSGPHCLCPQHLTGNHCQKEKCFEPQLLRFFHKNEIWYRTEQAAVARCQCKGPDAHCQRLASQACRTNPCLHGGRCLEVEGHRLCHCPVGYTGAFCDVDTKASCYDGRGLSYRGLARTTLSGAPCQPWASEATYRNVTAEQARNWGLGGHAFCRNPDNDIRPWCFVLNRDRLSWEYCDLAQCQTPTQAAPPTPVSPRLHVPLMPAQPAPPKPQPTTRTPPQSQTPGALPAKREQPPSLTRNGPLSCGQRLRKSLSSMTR
Description: Determination of Human Factor XIIa (hFXIIa) inhibition
The Km for the cleavage of the substrate by hFXIIa was determined by standard transformation of the Michaelis-Menten equation, with subsequent inhibition assays performed at substrate Km concentration.

FXa = FXa (Homo sapiens, UniProt P00742); assay: Related protease inhibition: FXa, fluorogenic substrate; format: biochemical; conditions: fluorogenic substrate at Km, 25° C.; H1-H3 = % activity at 40 μM
Chain of FXa (P00742 235-488 limits assumed): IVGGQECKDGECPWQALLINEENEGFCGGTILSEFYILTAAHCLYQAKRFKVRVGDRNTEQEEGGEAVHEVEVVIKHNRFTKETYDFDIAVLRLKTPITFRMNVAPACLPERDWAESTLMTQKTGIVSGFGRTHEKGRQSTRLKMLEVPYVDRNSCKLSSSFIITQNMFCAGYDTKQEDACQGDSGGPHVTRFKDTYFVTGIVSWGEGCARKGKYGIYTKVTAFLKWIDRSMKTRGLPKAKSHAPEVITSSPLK
Chain of FXa (P00742 41-179 partner limits assumed): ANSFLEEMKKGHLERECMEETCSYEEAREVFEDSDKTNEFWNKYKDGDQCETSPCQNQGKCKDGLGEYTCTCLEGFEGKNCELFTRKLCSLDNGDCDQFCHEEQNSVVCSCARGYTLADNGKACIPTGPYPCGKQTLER
Description: Human serine protease enzyme Plasma Kallikrein, KLK1, FXa, Plasmin, Thrombin and Trypsin were assayed for enzymatic activity using an appropriate fluorogenic substrate at Km concentration, FXIa at fixed substrate concentration of 100 μM and various concentrations of the test compound.

Row | IC50 [1] | IC50 (FXa) | SMILES
1 | 0.3 to 1 µM | > 40 µM | CN1CCc2ccc(N3CCc4c(C(=O)NC5COC5)nn(-c5cccc(Cl)c5)c4C3=O)cc2C1=O [Example 1342, 1-(3-chlorophenyl)-6-(2-methyl-1-oxo-1,2,3,4-tetrahydroisoquinolin-7-yl)-N-(oxetan-3-yl)-7-oxo-4,5,6,7-tetrahydro-1H-pyrazolo[3,4-c]pyridine-3-carboxamide]
2 | 0.1 to 0.3 µM | 10 to 40 µM | Cc1cc(CNC(=O)c2nn(-c3cccc(Cl)c3)c3c(=O)n(-c4ccc5c(c4)C(=O)N(C)CC5)c(C)nc23)nn1C [Example 3021, 1-(3-chlorophenyl)-N-((1,5-dimethyl-1H-pyrazol-3-yl)methyl)-5-methyl-6-(2-methyl-1-oxo-1,2,3,4-tetrahydroisoquinolin-7-yl)-7-oxo-6,7-dihydro-1H-pyrazolo[4,3-d]pyrimidine-3-carboxamide]
3 | 0.1 to 0.3 µM | > 40 µM | Cc1nc2c(C(=O)NCC3CC3)nn(-c3cccc(Cl)c3)c2c(=O)n1-c1ccc2c(c1)C(=O)N(C)CC2 [Example 3014, 1-(3-chlorophenyl)-N-(cyclopropylmethyl)-5-methyl-6-(2-methyl-1-oxo-1,2,3,4-tetrahydroisoquinolin-7-yl)-7-oxo-6,7-dihydro-1H-pyrazolo[4,3-d]pyrimidine-3-carboxamide]
4 | 0.01 to 0.1 µM | 3 to 10 µM | CCN1Cc2cc(N3CCc4c(C(=O)NCC5CC5)nn(-c5cccc(Cl)c5)c4C3=O)ccc2C2(CC2)C1 [Example 1099, 1-(3-chlorophenyl)-N-(cyclopropylmethyl)-6-(2′-ethyl-2′,3′-dihydro-1′H-spiro[cyclopropane-1,4′-isoquinolin]-7′-yl)-7-oxo-4,5,6,7-tetrahydro-1H-pyrazolo[3,4-c]pyridine-3-carboxamide]
5 | 0.3 to 1 µM | > 40 µM | Cc1cc(CNC(=O)c2nn(-c3cccc(C#N)c3)c3c2CCN(c2ccc4c(c2)C(=O)N(C)CC4)C3=O)nn1C [Example 2012, 1-(3-cyanophenyl)-N-((1,5-dimethyl-1H-pyrazol-3-yl)methyl)-6-(2-methyl-1-oxo-1,2,3,4-tetrahydroisoquinolin-7-yl)-7-oxo-4,5,6,7-tetrahydro-1H-pyrazolo[3,4-c]pyridine-3-carboxamide]
6 | 0.1 to 0.3 µM | > 40 µM | Cc1cc(CNC(=O)c2nn(-c3cccc(Cl)c3)c3c2CCN(c2ccc4c(c2)C(=O)N(C(C)C)CCO4)C3=O)nn1C [Example 1320, 1-(3-chlorophenyl)-N-((1,5-dimethyl-1H-pyrazol-3-yl)methyl)-6-(4-isopropyl-5-oxo-2,3,4,5-tetrahydrobenzo[f][1,4]oxazepin-7-yl)-7-oxo-4,5,6,7-tetrahydro-1H-pyrazolo[3,4-c]pyridine-3-carboxamide]
7 | 0.3 to 1 µM | > 40 µM | CN1CCc2ccc(N3CCc4c(C(=O)NCC5CC5)nn(-c5cccc(C#N)c5)c4C3=O)cc2C1=O [Example 2005, 1-(3-cyanophenyl)-N-(cyclopropylmethyl)-6-(2-methyl-1-oxo-1,2,3,4-tetrahydroisoquinolin-7-yl)-7-oxo-4,5,6,7-tetrahydro-1H-pyrazolo[3,4-c]pyridine-3-carboxamide]
8 | 0.3 to 1 µM | > 40 µM | O=C(NCC1CCOC1)c1nn(-c2cccc(Cl)c2)c2c1CCN(c1ccc3c(c1)C(=O)N(CCO)CC3)C2=O (stereo not shown) [Example 1260, 1-(3-chlorophenyl)-6-(2-(2-hydroxyethyl)-1-oxo-1,2,3,4-tetrahydroisoquinolin-7-yl)-7-oxo-N-((tetrahydrofuran-3-yl)methyl)-4,5,6,7-tetrahydro-1H-pyrazolo[3,4-c]pyridine-3-carboxamide]
9 | 0.1 to 0.3 µM | 10 to 40 µM | CC(=O)N1CCCc2ccc(N3CCc4c(C(=O)NCc5cnccc5C)nn(-c5cccc(Cl)c5)c4C3=O)cc21 [Example 1314, 6-(1-acetyl-1,2,3,4-tetrahydroquinolin-7-yl)-1-(3-chlorophenyl)-N-((4-methylpyridin-3-yl)methyl)-7-oxo-4,5,6,7-tetrahydro-1H-pyrazolo[3,4-c]pyridine-3-carboxamide]
10 | 0.01 to 0.1 µM | 10 to 40 µM | Cc1cn(C)nc1CNC(=O)c1nn(-c2cccc(Cl)c2)c2c(=O)n(-c3ccc4c(c3)CN(CCO)CC4)c(C)nc12 [Example 3005, 1-(3-Chlorophenyl)-N-[(1,4-dimethylpyrazol-3-yl)methyl]-6-[2-(2-hydroxyethyl)-3,4-dihydro-1H-isoquinolin-7-yl]-5-methyl-7-oxo-pyrazolo[4,3-d]pyrimidine-3-carboxamide]
11 | 0.3 to 1 µM | > 40 µM | CN1CCc2ccc(N3CCc4c(C(=O)NC5CCOC5(C)C)nn(-c5cccc(Cl)c5)c4C3=O)cc2C1=O (stereo not shown) [Example 1197, 1-(3-chlorophenyl)-N-(2,2-dimethyltetrahydrofuran-3-yl)-6-(2-methyl-1-oxo-1,2,3,4-tetrahydroisoquinolin-7-yl)-7-oxo-4,5,6,7-tetrahydro-1H-pyrazolo[3,4-c]pyridine-3-carboxamide]
12 | 0.01 to 0.1 µM | 10 to 40 µM | O=C(NCc1cnccc1Cl)c1nn(-c2cccc(Cl)c2)c2c1CCN(c1ccc3c(c1)CN(CCO)CC3)C2=O [Example 1154, 1-(3-chlorophenyl)-N-((4-chloropyridin-3-yl)methyl)-6-(2-(2-hydroxyethyl)-1,2,3,4-tetrahydroisoquinolin-7-yl)-7-oxo-4,5,6,7-tetrahydro-1H-pyrazolo[3,4-c]pyridine-3-carboxamide]
13 | 0.01 to 0.1 µM | 10 to 40 µM | Cc1ccncc1CNC(=O)c1nn(-c2cccc(Cl)c2)c2c(=O)n(-c3ccc4c(c3)C(=O)N(CCO)CC4)c(C)nc12 [Example 3017, 1-(3-chlorophenyl)-6-(2-(2-hydroxyethyl)-1-oxo-1,2,3,4-tetrahydroisoquinolin-7-yl)-5-methyl-N-((4-methylpyridin-3-yl)methyl)-7-oxo-6,7-dihydro-1H-pyrazolo[4,3-d]pyrimidine-3-carboxamide]
14 | 1 to 3 µM | > 40 µM | O=C(O)c1nn(-c2cccc(Cl)c2)c2c1CCN(c1cccc(CN3CCCCC3)c1)C2=O [Example 1232, 1-(3-chlorophenyl)-7-oxo-6-(3-(piperidin-1-ylmethyl)phenyl)-4,5,6,7-tetrahydro-1H-pyrazolo[3,4-c]pyridine-3-carboxylic acid]
15 | 10 to 40 µM | > 40 µM | CCNC(=O)c1nn(-c2cccc(Cl)c2)c2c1CCN(c1cccc(N3C(=O)CC[C@@H]3C)c1)C2=O [Example 1398, (S)-1-(3-chlorophenyl)-N-ethyl-6-(3-(2-methyl-5-oxopyrrolidin-1-yl)phenyl)-7-oxo-4,5,6,7-tetrahydro-1H-pyrazolo[3,4-c]pyridine-3-carboxamide]
16 | 0.1 to 0.3 µM | 10 to 40 µM | CCN1CCc2cnc(N3CCc4c(C(=O)NCC5CC5)nn(-c5cccc(Cl)c5)c4C3=O)cc2C1 [Example 1117, 1-(3-Chlorophenyl)-N-(cyclopropylmethyl)-6-(6-ethyl-5,6,7,8-tetrahydro-2,6-naphthyridin-3-yl)-7-oxo-4,5,6,7-tetrahydro-1H-pyrazolo[3,4-c]pyridine-3-carboxamide]
17 | 0.01 to 0.1 µM | 10 to 40 µM | Cc1ccncc1CNC(=O)c1nn(-c2cccc(Cl)c2)c2c1CCN(c1ccc3c(c1)C(=O)N(CCO)CCC3)C2=O [Example 1306, 1-(3-chlorophenyl)-6-(2-(2-hydroxyethyl)-1-oxo-2,3,4,5-tetrahydro-1H-benzo[c]azepin-8-yl)-N-((4-methylpyridin-3-yl)methyl)-7-oxo-4,5,6,7-tetrahydro-1H-pyrazolo[3,4-c]pyridine-3-carboxamide]
